For 17 compounds, Ki and Drug uptake results are on record in ChEMBL document CHEMBL5030559, “Imaging Autotaxin In Vivo with 18F-Labeled Positron Emission Tomography Ligands” (J Med Chem, 2021).

Series [1] addresses Autotaxin (Homo sapiens, UniProt Q13822). The series is described as follows: Inhibition of ATX lysoPLD (unknown origin) using 18:1 LPC as substrate assessed as reduction in choline release by HVA fluorescence based analysis.
A short description of series [2]: Drug uptake in iv dosed CD-1 mouse bone assessed as accumulation of radioactivity in bone measured after 30 to 60 mins post injection by PET imaging analysis. Format: ADME, organism-based, Bone element. To be noted: in vivo, time 30-60 min.
Series [3] can be described thus: Drug uptake in iv dosed CD-1 mouse brain measured up to 60 mins post injection by PET imaging analysis. The following applies: in vivo, 1 h. Format: ADME, organism-based.
Series [4] can be described thus: Drug uptake in iv dosed CD-1 mouse bone measured after 30 min by PET imaging analysis. The class given is ADME, organism-based, Bone element. To be noted: in vivo, 0.5 h.
Series [5] can be described thus: Ex vivo biodistribution in bone of iv dosed CD-1 mouse assessed as accumulation of radioactivity in bone measured after 15 to 60 min by PET imaging analysis. The following applies: time 15-60 min. Format: ADME, organism-based, Bone element.
Series [6] can be described thus: Drug uptake in iv dosed CD-1 mouse liver assessed as high radioactivity in liver measured up to 60 mins post injection by PET imaging analysis. To be noted: in vivo, 1 h. Format: ADME, organism-based.
The nature of series [7]: Drug uptake in iv dosed CD-1 mouse kidney assessed as high radioactivity in kidney measured up to 60 mins post injection by PET imaging analysis. Format: ADME, organism-based. To be noted: in vivo, 1 h.
Series [8] can be described thus: Drug uptake in iv dosed CD-1 mouse small intestine assessed as high radioactivity in small intestine measured up to 60 mins post injection by PET imaging analysis. Format: ADME, organism-based. To be noted: in vivo, 1 h.
Series [9] in a line: Drug uptake in iv dosed CD-1 mouse bone assessed as accumulation of radioactivity in bone measured after 30 mins post injection by PET imaging analysis. The class given is ADME, organism-based, Bone element. The following applies: in vivo, 0.5 h.
A short description of series [10]: Drug uptake in iv dosed CD-1 mouse bone assessed as accumulation of radioactivity in bone measured after 60 mins post injection by PET imaging analysis. Format: ADME, organism-based, Bone element. The following applies: in vivo, 1 h.
Series [11] is described as follows: Drug uptake in liver of LPS- induced CD-1 mouse model assessed as increase in signal of tracer in inflammed liver by measuring AUC (30 to 60 mins) relative to control. To be noted: in vivo, time 30-60 min. The class given is ADME, tissue-based.
Series [12] is described as follows: Drug uptake in liver of LPS- induced CD-1 mouse model assessed as increase in signal of tracer in liver measured after 30 mins by autoradiography analysis relative to control. The class given is ADME, tissue-based. To be noted: in vivo, 0.5 h.

As for `CCc1nc2ccc(N3CCN(CC(=O)N4CCC(F)C4)CC3)cn2c1N(C)c1nc(-c2ccc(F)cc2)c(C#N)s1` (stereo not drawn), the Ki in series [1] came out at 15 nM. As for `CCc1nc2ccc(N3CCN(CC(=O)N4CC(F)C4)CC3)cn2c1N(C)c1nc(-c2ccc(F)cc2)c(C#N)s1`, in series [1], the Ki is 41 nM. As for `CCc1nc2ccc(N3CCN(CC(=O)N4CCC(CF)C4)CC3)cn2c1N(C)c1nc(-c2ccc(F)cc2)c(C#N)s1` (stereo not drawn), the Ki in series [1] was 7 nM. Consider `CCc1nc2ccc(N3CCN(CC(=O)N4CC(OCCF)C4)CC3)cn2c1N(C)c1nc(-c2ccc(F)cc2)c(C#N)s1`, for which the Ki in series [1] was determined as 17 nM. Take `CCc1nc2ccc(N3CCN(CC(=O)N4CC(CF)C4)CC3)cn2c1N(C)c1nc(-c2ccc(F)cc2)c(C#N)s1`: in [1], the Ki turned out to be 14 nM. As for `CCc1nc2ccc(N3CCN(CC(=O)N4CCC([18F])C4)CC3)cn2c1N(C)c1nc(-c2ccc(F)cc2)c(C#N)s1` (stereo not drawn), in series [2], the Drug uptake was 10 % ID/g.

On to `[2H]C([2H])(F)C([2H])([2H])N1CCN(C(=O)CN2CCN(c3ccc4nc(CC)c(N(C)c5nc(-c6ccc(F)cc6)c(C#N)s5)n4c3)CC2)CC1`, for which, in series [1], the Ki came out at 19 nM. As for `CCc1nc2ccc(N3CCN(CC(=O)N4CCC([18F])CC4)CC3)cn2c1N(C)c1nc(-c2ccc(F)cc2)c(C#N)s1`, the Drug uptake in series [2] turned out to be 10 % ID/g.

For the compound `CCc1nc2ccc(N3CCN(CC(=O)N4CCC(C[18F])C4)CC3)cn2c1N(C)c1nc(-c2ccc(F)cc2)c(C#N)s1` (stereo not drawn), the Drug uptake result in series [3] was “Not Active”; in series [4], “Active”; in series [5], “Active”; in [6], “Active”; in series [7], “Active”; in series [8], “Active”. For the compound `CCc1nc2ccc(N3CCN(CC(=O)N4CC(O)C4)CC3)cn2c1N(C)c1nc(-c2ccc(F)cc2)c(C#N)s1`, in series [1], the Ki was 30 nM.

Turning to `CCc1nc2ccc(N3CCN(CC(=O)N4CCCC(F)C4)CC3)cn2c1N(C)c1nc(-c2ccc(F)cc2)c(C#N)s1` (stereo not drawn), the inhibitory constant (Ki) in series [1] was determined as 15 nM.

For the compound `CCc1nc2ccc(N3CCN(CC(=O)N4CCC(F)CC4)CC3)cn2c1N(C)c1nc(-c2ccc(F)cc2)c(C#N)s1`, in series [1], the Ki was 15 nM. As to `CCc1nc2ccc(N3CCN(CC(=O)N4CC[C@H](F)C4)CC3)cn2c1N(C)c1nc(-c2ccc(F)cc2)c(C#N)s1`, the Ki in series [1] was determined as 32 nM. Same read-out and setting: the result for `CCc1nc2ccc(N3CCN(CC(=O)N4CC[C@@H](F)C4)CC3)cn2c1N(C)c1nc(-c2ccc(F)cc2)c(C#N)s1` reads 14 nM; that for `CCc1nc2ccc(N3CCN(CC(=O)N4CCN(CCF)CC4)CC3)cn2c1N(C)c1nc(-c2ccc(F)cc2)c(C#N)s1`, 13 nM. `CCc1nc2ccc(N3CCN(CC(=O)N4CCN(CC[18F])CC4)CC3)cn2c1N(C)c1nc(-c2ccc(F)cc2)c(C#N)s1`: the Drug uptake in [9] is recorded as 6.6 % ID/g; in series [10] it was 6.4 % ID/g.

`[2H]C([2H])([18F])C([2H])([2H])N1CCN(C(=O)CN2CCN(c3ccc4nc(CC)c(N(C)c5nc(-c6ccc(F)cc6)c(C#N)s5)n4c3)CC2)CC1`: the Drug uptake entry is given as “Not Active” in series [5]; “Active” in [6]; “Active” in series [7]; “Active” in [8]; 84% in series [11]; 92% in series [12].

In general, Ki refers to the dissociation constant of the complex between target and ligand, obtained from inhibition or displacement.
